Several values for one entry are separate records, joined by “and”; a condition that tells them apart may be missing. Identical values can stand only once.
Legend:
formalin induced pain = assay: Manual formalin induced pain model; format: in vivo; settings: mice, p.o.
Description: The manual formalin induced pain model is well known for screening compounds for analgesic properties (Mogil J. S. et al., Heritability of nociception I: Responses of 11 inbred mouse strains on 12 measures of nociception. Pain 80 (1999) 67-82). The assay is performed in Plexiglas® boxes approx. 10 cm×10 cm×10 cm in size. A minor placed at the back of the cage allows the unhindered observation of the formalin injected paw. Non-fasted male mice (Harlan (HSD) CD1-Icr) are placed individually in the cubicles at least 60 min. prior to the experiment. All testing is conducted between 08:00 and 16:00 hr. and the testing room temperature is maintained at 21-23° C. […] Formalin (20 uL of a 5% solution in 0.9% saline) is injected subcutaneously into the plantar surface of the left hind paw with a 27 gauge needle. Observation starts immediately after the formalin injection. Formalin induced pain is quantified by recording the number of seconds each licking event lasts in 5 min intervals. The pain scoring is measured for 60 min. after the formalin injection. Two phases of pain behavior are observed as previously described (Wheeler-Aceto, H., Porreca, F. and Cowan, A., The rat paw formalin test: comparison of noxious agents, Pain 40 (1990) 229-238). The early phase starts immediately after the formalin injection and lasts approximately 5 min., followed by the late phase that starts between minutes 10-15 with a maximum response typically observed around 25-40 min after the formalin injection. After the 60 min. observation period, animals are sacrificed with CO2 followed by cervical dislocation. Of the different scoring parameters reported for the formalin test, the total time spent licking and biting the injected paw is considered to be most relevant. (Abbott et al., The formalin test: scoring properties of the first and second phases of the pain response in rats, Pain 60 (1995) 91-102; Coderre et al., The formalin test: a validation of the weighted-scores method of the behavioral pain rating, Pain 54 (1993) 43-50).) The early phase score is the sum of time spent licking (seconds) from time 0 to 5 min. The late phase score is obtained by adding the total number of seconds spent licking from minute 15 to min 55 of the observation period. Data are presented as means with standard errors of means (±SEM). Data are evaluated by one-way analysis of variance (ANOVA) and the appropriate contrasts analyzed by Dunnett “t” test for two sided comparisons. Differences are considered to be significant if the P-value is less than 0.05. (Abbott, supra.; Coderre, supra.; and Wheeler-Aceto, supra.)

[1] = molecular target: T1, GluA1 flip isoform devoid of TARP (Homo sapiens, UniProt P42261); assay: FLIPR antagonist functional assay, GluA1 flip expressed without TARP in CHO-S cells; format: cell-based; settings: glutamate 45 μM plus CTZ 20 μM, assay limit of 9260 nM
T1 construct: expressed in transfected cells; host or cells: CHO-S (Invitrogen), transient transfection
T1 sequence (P42261 19-906 isoform P42261-2 limits assumed): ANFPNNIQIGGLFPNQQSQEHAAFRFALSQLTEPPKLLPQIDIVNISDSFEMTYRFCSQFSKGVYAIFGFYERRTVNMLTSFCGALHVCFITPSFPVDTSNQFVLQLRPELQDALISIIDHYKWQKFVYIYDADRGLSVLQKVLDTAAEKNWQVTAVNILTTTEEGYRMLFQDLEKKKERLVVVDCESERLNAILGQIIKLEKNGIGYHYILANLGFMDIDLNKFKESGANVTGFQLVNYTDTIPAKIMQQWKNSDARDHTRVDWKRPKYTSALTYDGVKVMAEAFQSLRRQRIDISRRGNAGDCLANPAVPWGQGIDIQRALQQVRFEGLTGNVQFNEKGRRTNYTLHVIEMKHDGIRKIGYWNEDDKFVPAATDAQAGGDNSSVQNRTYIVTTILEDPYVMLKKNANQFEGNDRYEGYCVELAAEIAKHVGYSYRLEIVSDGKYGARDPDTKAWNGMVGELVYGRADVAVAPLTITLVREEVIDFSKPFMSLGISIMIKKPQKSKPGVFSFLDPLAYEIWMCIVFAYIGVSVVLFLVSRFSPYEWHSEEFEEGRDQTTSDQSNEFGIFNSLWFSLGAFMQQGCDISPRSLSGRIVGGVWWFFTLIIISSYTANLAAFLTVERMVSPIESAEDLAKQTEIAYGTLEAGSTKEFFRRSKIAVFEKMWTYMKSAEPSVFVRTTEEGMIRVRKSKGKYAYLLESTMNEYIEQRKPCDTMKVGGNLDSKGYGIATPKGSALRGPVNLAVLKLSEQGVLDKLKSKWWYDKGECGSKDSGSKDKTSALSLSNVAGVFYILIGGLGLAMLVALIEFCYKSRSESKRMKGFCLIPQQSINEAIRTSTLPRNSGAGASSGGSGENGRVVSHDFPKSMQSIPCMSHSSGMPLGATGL
Description: (§1) Briefly, CHO-S (Invitrogen) cells are grown in suspension in 50/50 custom media to a density of 1×10^7 cells/ml. (50/50 custom media is a low calcium media made as a 1:1 (v/v) mixture of CD CHO media (Gibco #10743) and a custom complete media. The custom complete media is made by adding 0.40 mg/L tropolone, 5.00 mg/L insulin, 20 mM HEPES, and 0.075% Pluronic® F68 to a custom basal media having the following formula: (values as mg/L unless otherwise specified) 11.01 anhydrous calcium chloride, 0.050 ferric nitrate-9H2O, 0.420 ferrous sulfate-7H2O, 28.64 anhydrous magnesium chloride, 48.84 anhydrous magnesium sulfate, 312.14 KCl, 5505.96 NaCl, 62.57 monobasic sodium phosphate, 71.28 anhydrous dibasic sodium phosphate, 0.432 zinc sulfate-7H2O, 10.0 ethanolamine HCl, 6000 D-glucose (dextrose), 0.210 DL lipoic acid thioctic, 0.081 putrescine 2 HCl, 4.78 sodium hypoxanthine, 220.24 sodium pyruvate, 0.730 thymidine, 8.90 L-alanine, 211.23 L-arginine HCl, 15.02 L-asparagine H2O, 13.31 L-aspartic acid, 62.67 cystine 2 HCl, 7.360 L-glutamic acid, 146.16 L-Glutamine, 30.0 gylicine, 42.04 L-histidine HCl 2 H2O, 105.11 L-isoluecine, 105.11 L-luecine, 146.16 L-lysine HCl, 30.03 L-methionine, 66.07 L-phenylalanine, 17.27 L-proline, 42.04 L-serine, 95.1 L-threonine, 16.02 L-typtophan, 104.11 L-tyrosine disodium salt, 94.1 L-valine, 8.99 choline chloride, 4.00 folic acid, 12.61 I inositol, 4.00 niacinamide, 4.00 pyridoxal HCl, 0.031 pyridoxine HCl, 0.400 riboflavin, 4.00 sodium pantothenate, 4.00 thiamine HCl, 0.680 vitamin B 12, and 2200 sodium bicarbonate.) Cells are centrifuged at 1000×g for […] and resuspended in fresh 50/50 custom media at 2×10^6 cells/ml. For batch transfection, 2 mg of total DNA(s) is used for each liter of cells. For GluA1-γ8 transfection of CHO-S cells, human GluA1 Qflop-Cacng8-pBudCE4.1 DNA (Qiagen) and human EAAT3 pAN104 DNA (Qiagen, a […]) are mixed in a ratio of 2:3. For GluA1-γ2 transfection of CHO-S cells, human GluA1 Qflop-Cacng2-pBudCE4.1 (Qiagen) is used. For GluA1 flip transfection of CHO-S cells, human GluA1 flip pcDNA3.1 DNA (Qiagen) is used. DNA(s) and FreeStyle™ MAX Reagent (Invitrogen cat#16447-500) are added to basal custom media (see above) in the proportions of 10 μg total DNA: 10 plFreeStyleTm MAX Reagent: 1 ml media, to form a DNA complex. […]
(§2) Frozen transfected CHO-S cells expressing AMPA receptors are thawed and plated in Dulbecco's Modified Eagle Media (DMEM media) (Gibco, cat#11960) containing 5% dialyzed Fetal Bovine Serum (Gibco, cat#26400-036) and 20 mM HEPES at 50,000 cells per well in 384-well Poly-D-lysine coated plates (Becton Dickinson, cat#354663) and cultured overnight at 37° C. On the day of an experiment, two fluorescence dye loading buffers are prepared. […]

[2] = molecular target: T2, TARP γ8 dependent GluA1 flop receptors (Homo sapiens, UniProt P42261+Q8WXS5); assay: FLIPR antagonist functional assay, GluA1 flop co-expressed with TARP γ8 in CHO-S cells; format: cell-based; settings: glutamate 45 μM plus CTZ 20 μM, read-out: relative IC50, inhibition of glutamate plus CTZ activation of TARP γ8 dependent GluA1 flop receptors
T2 construct: expressed in transfected cells; host or cells: CHO-S (Invitrogen), transient transfection
T2 sequence (P42261 19-906): as the sequence (P42261 19-906 isoform P42261-2 limits assumed) above, with G740N, S750N, V754L, S760N, K772G, D773G, S774G, G775D counted along it
T2 sequence (Q8WXS5 whole entry): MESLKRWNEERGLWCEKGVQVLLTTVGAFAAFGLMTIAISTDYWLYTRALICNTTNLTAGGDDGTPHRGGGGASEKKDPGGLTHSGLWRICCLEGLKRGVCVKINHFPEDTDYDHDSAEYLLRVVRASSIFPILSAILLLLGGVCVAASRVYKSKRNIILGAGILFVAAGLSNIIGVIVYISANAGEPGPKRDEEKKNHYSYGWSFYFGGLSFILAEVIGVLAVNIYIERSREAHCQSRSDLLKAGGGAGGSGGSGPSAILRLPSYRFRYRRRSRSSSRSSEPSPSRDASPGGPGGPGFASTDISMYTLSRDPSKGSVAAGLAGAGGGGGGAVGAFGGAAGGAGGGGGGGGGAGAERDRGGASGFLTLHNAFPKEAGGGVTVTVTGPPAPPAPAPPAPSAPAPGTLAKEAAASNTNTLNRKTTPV
Description: as §1, §2

[3] = molecular target: T3, TARP γ2 dependent GluA1 flop receptors (Homo sapiens, UniProt P42261+Q9Y698); assay: FLIPR antagonist functional assay, GluA1 flop co-expressed with TARP γ2 in CHO-S cells; format: cell-based; settings: glutamate 45 μM plus CTZ 20 μM, assay limit of 9260 nM
T3 construct: expressed in transfected cells; host or cells: CHO-S (Invitrogen), transient transfection
T3 sequence (P42261 19-906): as the sequence (P42261 19-906 isoform P42261-2 limits assumed) above, with G740N, S750N, V754L, S760N, K772G, D773G, S774G, G775D counted along it
T3 sequence (Q9Y698 whole entry): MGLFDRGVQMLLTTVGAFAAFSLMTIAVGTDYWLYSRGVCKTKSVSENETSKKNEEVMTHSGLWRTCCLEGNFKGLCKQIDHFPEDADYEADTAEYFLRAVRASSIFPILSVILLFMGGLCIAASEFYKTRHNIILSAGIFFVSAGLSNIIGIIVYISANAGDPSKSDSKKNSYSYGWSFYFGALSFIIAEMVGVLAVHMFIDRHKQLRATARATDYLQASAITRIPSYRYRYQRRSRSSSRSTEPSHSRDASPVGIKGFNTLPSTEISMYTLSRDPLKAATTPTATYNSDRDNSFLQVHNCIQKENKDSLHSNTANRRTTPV
Description: as §1, §2

SMILES	Percent reversal of Late Phase Licking (formalin induced pain; 1 mg/Kg)	Percent reversal of Late Phase Licking (formalin induced pain; 3 mg/Kg)	Percent reversal of Late Phase Licking (formalin induced pain; 10 mg/Kg)	IC50 [1]	IC50 [2]	IC50 [3]	Percent reversal of Late Phase Licking (formalin induced pain; 30 mg/Kg)	Percent reversal of Late Phase Licking (formalin induced pain; 60 mg/Kg)	Percent reversal of Late Phase Licking (formalin induced pain; positive control 80 mg/Kg Tramadol, one value per experiment (Examples 3, 27, 30, 55))
CC(c1ccc2[nH]c(=O)sc2c1)c1ccn(-c2ccc(N3CCC(O)CC3)cn2)n1 (single isomer, unassigned) [Example 3, 6-(1-(1-(5-(4-hydroxypiperidin-1-yl)pyridin-2-yl)-1H-pyrazol-3-yl)ethyl)benzo[d]thiazol-2(3H)-one]	32.3%	43.8%	66.2%	> 9.26 µM	0.0911 ± 0.0481 µM	> 9.26 µM			
C[C@@H](c1ccc2[nH]c(=O)sc2c1)c1ccn(-c2ccc(CCO)cn2)n1 (single isomer, unassigned) [Example 27]			24.27%	> 9.26 µM	0.0616 ± 0.0235 µM	> 9.26 µM	57.15%	62.14%	
CC(=O)c1ccc(-c2csc(C(C)c3ccc4[nH]c(=O)sc4c3)n2)nc1 (single isomer, unassigned) [Example 54, 6-[1-[4-(5-acetyl-2-pyridyl)thiazol-2-yl]ethyl]-3H-1,3-benzothiazol-2-one]				> 9.26 µM	0.0826 ± 0.0562 µM	> 9.26 µM			
CC(c1ccc2[nH]c(=O)sc2c1)c1csc(-c2ccccn2)n1 (single isomer, unassigned) [Example 53, 6-[1-(2-pyridin-2-yl-thiazol-4-yl)-ethyl]-3H-benzothiazol-2-one]				> 9.26 µM	0.0656 ± 0.0149 µM	> 9.26 µM			
CC(O)COCc1ccc(-n2ccc(C(C)c3ccc4[nH]c(=O)sc4c3)n2)nc1 (single isomer, unassigned) [Example 55, 6-[1-[1-[5-(2-hydroxypropoxymethyl)-2-pyridyl]pyrazol-3-yl]ethyl]-3H-1,3-benzothiazol-2-one]		25.64%	31.08%				63.47%		
COc1cccc(C2(O)CCCCC2CN(C)C)c1 (centres unmarked) [Tramadol, tramadol, reference compound]									94.7% and 86.97% and 57.96% and 81.84%
CC(c1ccc2[nH]c(=O)sc2c1)c1ccn(-c2ccc(CCC(C)(C)O)cn2)n1 (single isomer, unassigned) [Example 30]		8.88%	11.77%				47.77%	62.14%	

From patent US9469632B2, “6-substituted-3H-1,3-benzothiazol-2-one compounds as TARP-gamma 8 dependent AMPA receptor antagonists” (Eli Lilly and Company, priority 2014, dated 2016)
